According to patent US9931331B2 (priority 2013, dated 2018):
Several values for one entry are separate records, joined by “and”; a condition that tells them apart may be missing. Equal values may be shown once. Read-outs that look alike come from different tables or passages of the source. Residues, ends and D or L forms follow the SMILES beside them. *: point of attachment. Cbz = O=C(OCc1ccccc1)*

Columns and labels:
brain tumor cell (T98G) = test: Cell viability (calcein-AM / ethidium homodimer-1), T98G; conditions: 24 h
Experimental: (§1) Strains of cervical cancer cell (HeLa), kidney cancer cell (Caki-1), brain tumor cell (T98G), breast cancer cell (MDA-MB 435S), and colon cancer cell (DLD-1), multiple myeloma cell (RPMI-8226), and a strain of normal breast epithelial cell (MCF-10A) were available from ATCC (American Type Culture Collection, USA). The strains of cervical cancer cell (HeLa), kidney cancer cell (Caki-1), brain tumor cell (T98G), breast cancer cell (MDA-MB 435S), and colon cancer cell (DLD-1) were cultured by using a DMEM medium including 10% fetal bovine serum (FBS), 2 mM of L-glutamin, 100 i.u./ml of penicillin, and […] of streptomycin for the culture and maintenance; multiple myeloma cell (RPMI-8226) was cultured by using a RPMI1640 medium including 10% FBS, 100 i.u./ml of penicillin, and […] of streptomycin; and the strain of normal breast epithelial cell (MCF-10A) was cultured by using a mammary epithelial growth medium (MEGM) including a bovine pituitary extract, insulin, human epidermal growth factor, hydrocortisone, and antibiotics, and the culture conditions included 37° C. and 5% CO2 in an incubator.
(§2) Then, the cells were stained by using 2 μM calcein-AM and 4 μM ethidium homodimer-1, and cell viability was measured by using a fluorescent microscope (Axiovert 200M, available from Carl Zeiss, Jena, Germany).

[1] = test system: kidney cancer cell (Caki-1); test: Cell viability (calcein-AM / ethidium homodimer-1), Caki-1
Experimental: as §1, §2

in vitro = conditions: human
Experimental: as §1, §2

[2] = test system: cervical cancer cell (HeLa); test: Cell viability (calcein-AM / ethidium homodimer-1), HeLa; conditions: 24 h
Experimental: as §1, §2

[3] = test system: breast cancer cell (MDA-MB 435S); test: Cell viability (calcein-AM / ethidium homodimer-1), MDA-MB 435S; conditions: 24 h
Experimental: as §1, §2

[4] = test system: colon cancer cell (DLD-1); test: Cell viability (calcein-AM / ethidium homodimer-1), DLD-1; conditions: for cytotoxicity at 1 µM: read-out: cell viability decreased
Experimental: as §1, §2

[5] = test system: multiple myeloma cell (RPMI-8226); test: Cell viability (calcein-AM / ethidium homodimer-1), RPMI-8226; conditions: for Cell viability: RPMI-8226, 24 h
Experimental: as §1, §2

[6] = test system: normal breast epithelial cell (MCF-10A); test: Cell viability (calcein-AM / ethidium homodimer-1), MCF-10A; conditions: MCF-10A, 24 h
Experimental: as §1, §2

[7] = Homo sapiens, read-out: Cell viability
[8] = Homo sapiens, CAKI-1, 24 h, read-out: Cell viability
[9] = Homo sapiens, CAKI-1, 24 h, read-out: cell viability decreased
[10] = Homo sapiens, MDA-MB-435S, read-out: Cell viability
[11] = Homo sapiens, MDA-MB-435S, read-out: cell viability decreased
[12] = Homo sapiens, DLD-1, 24 h, read-out: Cell viability
[13] = Homo sapiens, RPMI-8226, 24 h, read-out: Cell viability
[14] = Homo sapiens, read-out: cell viability decreased

CC(C)C[C@H](NC(=O)CNC(=O)c1cc(Cl)ccc1Cl)B1OC(=O)C(CC(=O)O)(CC(=O)O)O1 [MLN9708]
viability at 0.05 µM (brain tumor cell (T98G); [7]): 92%
viability at 0.1 µM (brain tumor cell (T98G); [7]): 84.7%
viability at 0.1 µM [1, 8]: 83.3%
viability at 0.2 µM [1, 8]: 75.7%
cytotoxicity at 0.2 µM [1, 9]: ~25%
viability at 24 h, 50 nM (in vitro): 98%
viability at 24 h, 100 nM (in vitro): 92.3%
viability at 0.1 µM [2, 7]: 100%
viability at 0.2 µM [2, 7]: 97.8%
viability at 0.1 µM [3, 10]: 97.5%
viability at 0.2 µM [3, 10]: 93.3%
cytotoxicity at 0.2 µM [3, 11]: ~10%
viability at 0.1 µM [4, 12]: 98.2%
viability at 0.2 µM [4, 12]: 95.2%
viability at 0.02 µM [5, 13]: 100%
viability at 0.04 µM [5, 13]: 80.8%

CC(C)C[C@@H](C=O)NC(=O)[C@H](CC(C)C)NC(=O)[C@H](CC(C)C)NC(=O)OCc1ccccc1 [MG132] (Cbz-Leu-Leu-Leu-aldehyde)
viability at 0.125 µM (brain tumor cell (T98G); [7]): 99.7%
viability at 0.25 µM (brain tumor cell (T98G); [7]): 96.5%
cancer cell toxicity (brain tumor cell (T98G); MG132 up to 0.25 μM): did not exhibit significant cancer cell toxicity
viability at 0.5 µM [1, 8]: 100%
viability at 1 µM [1, 8]: 89.3%
cytotoxicity at 1 µM [1, 9]: ~10%
viability at 24 h, 0.25 μM (in vitro): 95.2%
viability at 24 h, 0.5 μM (in vitro): 92.9%
viability at 0.5 µM [2, 7]: 100%
viability at 1 µM [2, 7]: 100%
cell toxicity ([2]; MG132 alone up to 1 μM): did not exhibit cell toxicity
viability at 0.25 µM [3, 10]: 100%
viability at 0.5 µM [3, 10]: 93%
cancer cell toxicity ([3]; MDA-MB 435S, MG132 alone up to 0.5 μM): did not exhibit significant cancer cell toxicity
viability at 0.5 µM [4, 12]: 91.7%
viability at 1 µM [4, 12]: 81.3%
cytotoxicity at 1 µM ([4]; Homo sapiens, DLD-1, 24 h): ~19%
viability at 0.1 µM [5, 13]: 100%
viability at 0.2 µM [5, 13]: 99.1%

CC(C)C[C@H](NC(=O)[C@H](CCc1ccccc1)NC(=O)CN1CCOCC1)C(=O)N[C@@H](Cc1ccccc1)C(=O)N[C@@H](CC(C)C)C(=O)[C@@]1(C)CO1 [Carfilzomib]
viability at 0.02 µM (brain tumor cell (T98G); [7]): 100%
viability at 0.04 µM (brain tumor cell (T98G); [7]): 93%
viability at 0.05 µM [1, 8]: 95.6%
viability at 0.1 µM [1, 8]: 95.2%
viability at 24 h, 50 nM (in vitro): 99.5%
viability at 24 h, 100 nM (in vitro): 98.1%
viability at 0.05 µM [2, 7]: 90%
viability at 0.1 µM [2, 7]: 89.8%
cytotoxicity at 0.1 µM [2, 14]: ~10%
viability at 0.025 µM [3, 10]: 87.1%
viability at 0.05 µM [3, 10]: 84.4%
cytotoxicity at 0.05 µM [3, 11]: ~15%
viability at 0.1 µM [4, 12]: 98.2%
viability at 0.2 µM [4, 12]: 94.7%
viability at 0.005 µM [5, 13]: 95.8%
viability at 0.01 µM [5, 13]: 63.4%

CN(C)C(=O)C(CCN1CCC(O)(c2ccc(Cl)cc2)CC1)(c1ccccc1)c1ccccc1 [Loperamide]
viability at 10 µM (brain tumor cell (T98G); Homo sapiens, read-out: Cell viability, T98G, loperamide 10 μM alone): 100%
viability at 20 µM (brain tumor cell (T98G); Homo sapiens, read-out: Cell viability, T98G, loperamide 20 μM alone): 99%
cytotoxicity at 20 µM (brain tumor cell (T98G); [14]): ~10%
Cell viability (brain tumor cell (T98G); loperamide 10 μM alone): 94.43
cancer cell toxicity (brain tumor cell (T98G); loperamide alone up to 20 μM): did not exhibit significant cancer cell toxicity
viability at 20 µM [1, 8]: 100%
viability at 40 µM [1, 8]: 65.1%
cytotoxicity at 40 µM [1, 9]: ~35%
Cell viability ([6]; loperamide 10 μM alone): 95.21 and 100.29 and 95.11
Cell viability ([6]; loperamide 20 μM alone): 99.25 and 94.65 and 100.37
viability at 24 h, 10 μM (in vitro; Cell viability, MCF-10A, loperamide 10 μM alone, 24 h): 97.7%
viability at 24 h, 20 μM (in vitro; Cell viability, MCF-10A, loperamide 20 μM alone, 24 h): 94.6%
viability at 20 µM ([2]; Homo sapiens, read-out: Cell viability, HeLa, loperamide 20 μM alone): 99.7%
viability at 40 µM ([2]; Homo sapiens, read-out: Cell viability, HeLa, loperamide 40 μM alone): 75.1%
cytotoxicity at 40 µM [2, 14]: ~25%
Cell viability ([2]; loperamide 20 μM alone): 99.81
viability at 10 µM [3, 10]: 100%
viability at 20 µM [3, 10]: 78%
cytotoxicity at 20 µM ([3]; Homo sapiens, MDA-MB-435S, read-out: cell viability decreased, MDA-MB 435S, loperamide alone 20 μM): ~22%
viability at 10 µM [4, 12]: 100%
viability at 20 µM [4, 12]: 100%
viability at 5 µM [5, 13]: 98.6%
viability at 10 µM [5, 13]: 89.4%

CC1=C(O)C(=O)C=C2C1=CC=C1[C@@]2(C)CC[C@@]2(C)[C@@H]3C[C@](C)(C(=O)O)CC[C@]3(C)CC[C@]12C [Celastrol]
viability at 1 µM (brain tumor cell (T98G); Homo sapiens, read-out: Cell viability, T98G, celastrol 1 μM alone): 100%
viability at 2 µM (brain tumor cell (T98G); Homo sapiens, read-out: Cell viability, T98G, celastrol 2 μM alone): 91.3%
cytotoxicity at 2 µM (brain tumor cell (T98G); [14]): ~9%
viability at 1 µM [1, 8]: 100%
viability at 2 µM [1, 8]: 69.6%
cytotoxicity at 2 µM [1, 9]: ~30%
viability at 24 h, 0.25 μM (in vitro; Cell viability, MCF-10A, celastrol 0.25 μM alone, 24 h): 98.9%
viability at 24 h, 0.5 μM (in vitro; Cell viability, MCF-10A, celastrol 0.5 μM alone, 24 h): 95.9%
viability at 0.5 µM ([2]; Homo sapiens, read-out: Cell viability, HeLa, celastrol 0.5 μM alone): 100%
viability at 1 µM ([2]; Homo sapiens, read-out: Cell viability, HeLa, celastrol 1 μM alone): 88.4%
cytotoxicity at 1 µM [2, 14]: ~11%
viability at 0.25 µM [3, 10]: 100%
viability at 0.5 µM [3, 10]: 92.5%
cytotoxicity at 0.5 µM ([3]; Homo sapiens, MDA-MB-435S, read-out: cell viability decreased, MDA-MB 435S, celastrol alone 0.5 μM): ~7%
viability at 0.5 µM [4, 12]: 90.5%
viability at 1 µM [4, 12]: 88.7%
cytotoxicity at 1 µM ([4]; Homo sapiens, DLD-1, 24 h): ~11%
viability at 0.05 µM [5, 13]: 90.7%
viability at 0.1 µM [5, 13]: 69%

CC(C)C[C@H](NC(=O)[C@H](Cc1ccccc1)NC(=O)c1cnccn1)B(O)O [Bortezomib, N-(2-pyrazine)carbonyl-L-phenylalanine-L-leucine boronic acid]
viability at 0.005 µM (brain tumor cell (T98G); [7]): 99.7%
viability at 0.01 µM (brain tumor cell (T98G); [7]): 89.7%
viability at 0.01 µM [1, 8]: 100%
viability at 0.02 µM [1, 8]: 78%
cytotoxicity at 0.02 µM [1, 9]: ~22%
viability at 24 h, 15 nM (in vitro): 98.8%
viability at 24 h, 30 nM (in vitro): 94.6%
viability at 0.02 µM [2, 7]: 100%
viability at 0.04 µM [2, 7]: 90.8%
cytotoxicity at 0.04 µM [2, 14]: ~10%
viability at 0.0075 µM [3, 10]: 100%
viability at 0.015 µM [3, 10]: 91%
cancer cell toxicity ([3]; MDA-MB 435S, bortezomib alone up to 15 nM): did not induce cancer cell toxicity
viability at 0.04 µM [4, 12]: 99.7%
viability at 0.06 µM [4, 12]: 95%
viability at 0.001 µM [5, 13]: 100%
viability at 0.002 µM [5, 13]: 81.7%

COc1cc(/C=C/C(=O)CC(=O)/C=C/c2ccc(O)c(OC)c2)ccc1O [Curcumin]
viability at 10 µM (brain tumor cell (T98G); [7]): 99.7%
viability at 20 µM (brain tumor cell (T98G); [7]): 96.5%
viability at 15 µM [1, 8]: 78.5%
viability at 30 µM [1, 8]: 68.2%
cytotoxicity at 30 µM [1, 9]: ~32%
viability at 24 h, 10 μM (in vitro): 97.7%
viability at 24 h, 20 μM (in vitro): 95.9%
viability at 10 µM [2, 7]: 100%
viability at 20 µM [2, 7]: 91.3%
cytotoxicity at 20 µM [2, 14]: ~9%
viability at 10 µM [3, 10]: 70.7%
viability at 20 µM [3, 10]: 58.8%
cytotoxicity at 20 µM [3, 11]: ~41%
viability at 20 µM [4, 12]: 96.7%
viability at 30 µM [4, 12]: 89%
viability at 10 µM [5, 13]: 93.6%
viability at 20 µM [5, 13]: 61.9%

CC[C@H](C)[C@H](NC(=O)[C@H]([C@@H](C)CC)N(C)C(C)=O)C(=O)N[C@H](C(=O)N[C@@H](CC(C)C)C(=O)[C@@]1(C)CO1)[C@@H](C)O [Epoxomicin]
Cell viability (brain tumor cell (T98G); epoxomicin 5 nM alone): 95.66
Cell viability (brain tumor cell (T98G); epoxomicin 10 nM alone): 79.79
Cell viability ([1]; Caki-1, epoxomicin 20 nM alone, 24 h): 100
cell viability decreased ([1]; Caki-1, epoxomicin alone 40 nM, 24 h): about 35%
cancer cell toxicity ([1]; Caki-1, epoxomicin alone up to 20 nM, 24 h): did not induce cancer cell toxicity
Cell viability ([6]; epoxomicin 10 nM alone): 97.62
Cell viability ([6]; epoxomicin 20 nM alone): 94.36
Cell viability ([2]; epoxomicin 10 nM alone): 100
Cell viability ([2]; epoxomicin 20 nM alone): 87.73
cell viability decreased ([2]; epoxomicin alone 20 nM): about 12%
cell viability decreased ([3]; MDA-MB 435S, epoxomicin alone 15 nM): about 18%
Cell viability ([4]; DLD-1, epoxomicin 20 nM alone, 24 h): 99.70
Cell viability ([5]; epoxomicin 2.5 nM alone): 100
Cell viability ([5]; epoxomicin 5 nM alone): 92.72
